Test results as given in PubChem BioAssay AID2060510 (Molecular Pharmacology Branch, DTP, NCI, 2025).

System: 439559-082-T-J2-PDC spheroids viability
Test: Anticancer human tumor 439559-082-T-J2-PDC patient-derived colon adenocarcinoma cell line growth inhibition [GQUAD]
Conditions: for IC50: curve of first compound; for viability, T/C: stronger effect = lower value
Method in brief: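 Viability of tumor cells grown as complex spheroids with endothelial and stromal cells, exposed to drug combinations. Top concentration at or near clinical Cmax (else 10 microM), diluted in half-log increments.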

[1] = second compound 0.0316 µM, first compound 0.0316 µM
[2] = second compound 0.0316 µM, first compound 0.1 µM
[3] = second compound 0.0316 µM, first compound 0.316 µM
[4] = second compound 0.0316 µM, first compound 1 µM
[5] = second compound 0.0316 µM, first compound 3.16 µM
[6] = second compound 0.0316 µM, first compound 10 µM
[7] = second compound 0.1 µM, first compound 0.0316 µM
[8] = second compound 0.1 µM, first compound 0.1 µM
[9] = second compound 0.1 µM, first compound 0.316 µM
[10] = second compound 0.1 µM, first compound 1 µM
[11] = second compound 0.1 µM, first compound 3.16 µM
[12] = second compound 0.1 µM, first compound 10 µM
[13] = second compound 0.316 µM, first compound 0.0316 µM
[14] = second compound 0.316 µM, first compound 0.1 µM
[15] = second compound 0.316 µM, first compound 0.316 µM
[16] = second compound 0.316 µM, first compound 1 µM
[17] = second compound 0.316 µM, first compound 3.16 µM
[18] = second compound 0.316 µM, first compound 10 µM
[19] = second compound 1 µM, first compound 0.0316 µM
[20] = second compound 1 µM, first compound 0.1 µM
[21] = second compound 1 µM, first compound 0.316 µM
[22] = second compound 1 µM, first compound 1 µM
[23] = second compound 1 µM, first compound 3.16 µM
[24] = second compound 1 µM, first compound 10 µM
[25] = second compound 3.16 µM, first compound 0.0316 µM
[26] = second compound 3.16 µM, first compound 0.1 µM
[27] = second compound 3.16 µM, first compound 0.316 µM
[28] = second compound 3.16 µM, first compound 1 µM
[29] = second compound 3.16 µM, first compound 3.16 µM
[30] = second compound 3.16 µM, first compound 10 µM
[31] = second compound 10 µM, first compound 0.0316 µM
[32] = second compound 10 µM, first compound 0.1 µM
[33] = second compound 10 µM, first compound 0.316 µM
[34] = second compound 10 µM, first compound 1 µM
[35] = second compound 10 µM, first compound 3.16 µM
[36] = second compound 10 µM, first compound 10 µM
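Further: spheroids exposed to the agents for 7 days before readout.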
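Wherever viability, T/C is given: percent of luminescence signal in DMSO vehicle wells taken as 100% viability.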

CC(C)n1c(=O)n(C)c2cnc3cc(F)c(-c4ccc(OCCCN5CCCCC5)nc4)cc3c21 + Cc1cnc(CNC(=O)c2c(=O)c3ccc(N4CCCN(C)CC4)nc3n3c2sc2ccccc23)cn1
IC50 (second compound 0.0316 µM): > 10 µM | IC50 (second compound 0.1 µM): > 10 µM | IC50 (second compound 0.316 µM): > 10 µM | IC50 (second compound 1 µM): > 10 µM | IC50 (second compound 3.16 µM): > 10 µM | IC50 (second compound 10 µM): 5.99 µM | viability, T/C [1]: 91.2% | viability, T/C [2]: 77.3% | viability, T/C [3]: 88.8% | viability, T/C [4]: 90.8% | viability, T/C [5]: 94.2% | viability, T/C [6]: 82.6% | viability, T/C [7]: 77.9% | viability, T/C [8]: 76.1% | viability, T/C [9]: 60.8% | viability, T/C [10]: 68.2% | viability, T/C [11]: 71% | viability, T/C [12]: 62.9% | viability, T/C [13]: 73.3% | viability, T/C [14]: 67.6% | viability, T/C [15]: 59.1% | viability, T/C [16]: 66.3% | viability, T/C [17]: 71.6% | viability, T/C [18]: 53% | viability, T/C [19]: 71.8% | viability, T/C [20]: 55.7% | viability, T/C [21]: 66.7% | viability, T/C [22]: 62.4% | viability, T/C [23]: 62.9% | viability, T/C [24]: 42.7% | viability, T/C [25]: 56.9% | viability, T/C [26]: 60.6% | viability, T/C [27]: 67.6% | viability, T/C [28]: 60.8% | viability, T/C [29]: 58.1% | viability, T/C [30]: 46.1% | viability, T/C [31]: 59.8% | viability, T/C [32]: 57.2% | viability, T/C [33]: 60.3% | viability, T/C [34]: 59.2% | viability, T/C [35]: 58% | viability, T/C [36]: 39.8%

CC1COCCN1c1cc(C2(O)CC3CCC(C2)O3)c2cnn(-c3ccn[nH]3)c2n1 (stereo not drawn) + Cc1cnc(CNC(=O)c2c(=O)c3ccc(N4CCCN(C)CC4)nc3n3c2sc2ccccc23)cn1
IC50 (second compound 0.0316 µM): 0.901 µM | IC50 (second compound 0.1 µM): 0.591 µM | IC50 (second compound 0.316 µM): 0.364 µM | IC50 (second compound 1 µM): 0.342 µM | IC50 (second compound 3.16 µM): 0.275 µM | IC50 (second compound 10 µM): 0.136 µM | viability, T/C [1]: 84.9% | viability, T/C [2]: 85.1% | viability, T/C [3]: 66.8% | viability, T/C [4]: 47.8% | viability, T/C [5]: 38.4% | viability, T/C [6]: 30.4% | viability, T/C [7]: 84.4% | viability, T/C [8]: 77.6% | viability, T/C [9]: 57.6% | viability, T/C [10]: 43.8% | viability, T/C [11]: 34.6% | viability, T/C [12]: 33.2% | viability, T/C [13]: 82.5% | viability, T/C [14]: 68.7% | viability, T/C [15]: 54.3% | viability, T/C [16]: 34.3% | viability, T/C [17]: 37.9% | viability, T/C [18]: 31.3% | viability, T/C [19]: 71.4% | viability, T/C [20]: 68.2% | viability, T/C [21]: 49.6% | viability, T/C [22]: 36.5% | viability, T/C [23]: 28.8% | viability, T/C [24]: 26.6% | viability, T/C [25]: 65.5% | viability, T/C [26]: 57.8% | viability, T/C [27]: 49.9% | viability, T/C [28]: 34.6% | viability, T/C [29]: 25.2% | viability, T/C [30]: 27.3% | viability, T/C [31]: 65.6% | viability, T/C [32]: 50.5% | viability, T/C [33]: 44.5% | viability, T/C [34]: 32.8% | viability, T/C [35]: 27.6% | viability, T/C [36]: 21.2%

Cn1ncnc1[C@H]1c2n[nH]c(=O)c3cc(F)cc(c23)N[C@@H]1c1ccc(F)cc1 + Cc1cnc(CNC(=O)c2c(=O)c3ccc(N4CCCN(C)CC4)nc3n3c2sc2ccccc23)cn1
IC50 (second compound 0.0316 µM): > 0.316 µM | IC50 (second compound 0.1 µM): > 0.316 µM | IC50 (second compound 0.316 µM): > 0.316 µM | IC50 (second compound 1 µM): > 0.316 µM | IC50 (second compound 3.16 µM): > 0.316 µM | IC50 (second compound 10 µM): > 0.316 µM | viability, T/C (second compound 0.0316 µM, first compound 0.000999 µM): 96.2% | viability, T/C (second compound 0.0316 µM, first compound 0.00316 µM): 92% | viability, T/C (second compound 0.0316 µM, first compound 0.00999 µM): 102% | viability, T/C [1]: 99.7% | viability, T/C (second compound 0.0316 µM, first compound 0.0999 µM): 103% | viability, T/C [3]: 94.8% | viability, T/C (second compound 0.1 µM, first compound 0.000999 µM): 109% | viability, T/C (second compound 0.1 µM, first compound 0.00316 µM): 84.8% | viability, T/C (second compound 0.1 µM, first compound 0.00999 µM): 95.8% | viability, T/C [7]: 88% | viability, T/C (second compound 0.1 µM, first compound 0.0999 µM): 87.3% | viability, T/C [9]: 79.6% | viability, T/C (second compound 0.316 µM, first compound 0.000999 µM): 93.8% | viability, T/C (second compound 0.316 µM, first compound 0.00316 µM): 85.5% | viability, T/C (second compound 0.316 µM, first compound 0.00999 µM): 93% | viability, T/C [13]: 82.6% | viability, T/C (second compound 0.316 µM, first compound 0.0999 µM): 88.6% | viability, T/C [15]: 74.4% | viability, T/C (second compound 1 µM, first compound 0.000999 µM): 72.2% | viability, T/C (second compound 1 µM, first compound 0.00316 µM): 81.5% | viability, T/C (second compound 1 µM, first compound 0.00999 µM): 74.3% | viability, T/C [19]: 76% | viability, T/C (second compound 1 µM, first compound 0.0999 µM): 81.6% | viability, T/C [21]: 64.8% | viability, T/C (second compound 3.16 µM, first compound 0.000999 µM): 72.1% | viability, T/C (second compound 3.16 µM, first compound 0.00316 µM): 70.8% | viability, T/C (second compound 3.16 µM, first compound 0.00999 µM): 76.5% | viability, T/C [25]: 71% | viability, T/C (second compound 3.16 µM, first compound 0.0999 µM): 73.8% | viability, T/C [27]: 67.8% | viability, T/C (second compound 10 µM, first compound 0.000999 µM): 65% | viability, T/C (second compound 10 µM, first compound 0.00316 µM): 65% | viability, T/C (second compound 10 µM, first compound 0.00999 µM): 67.4% | viability, T/C [31]: 63.5% | viability, T/C (second compound 10 µM, first compound 0.0999 µM): 70.9% | viability, T/C [33]: 63.9%

O=C(c1cc(Cc2n[nH]c(=O)c3ccccc23)ccc1F)N1CCN(C(=O)C2CC2)CC1 + Cc1cnc(CNC(=O)c2c(=O)c3ccc(N4CCCN(C)CC4)nc3n3c2sc2ccccc23)cn1
IC50 (second compound 0.0316 µM): > 10 µM | IC50 (second compound 0.1 µM): > 10 µM | IC50 (second compound 0.316 µM): > 10 µM | IC50 (second compound 1 µM): > 10 µM | IC50 (second compound 3.16 µM): > 10 µM | IC50 (second compound 10 µM): > 10 µM | viability, T/C [1]: 94% | viability, T/C [2]: 99.1% | viability, T/C [3]: 97.3% | viability, T/C [4]: 94% | viability, T/C [5]: 96.8% | viability, T/C [6]: 98.2% | viability, T/C [7]: 97% | viability, T/C [8]: 87.7% | viability, T/C [9]: 88.4% | viability, T/C [10]: 89.5% | viability, T/C [11]: 101% | viability, T/C [12]: 91.9% | viability, T/C [13]: 90.6% | viability, T/C [14]: 93.2% | viability, T/C [15]: 84.1% | viability, T/C [16]: 85.5% | viability, T/C [17]: 85.7% | viability, T/C [18]: 78.8% | viability, T/C [19]: 82.8% | viability, T/C [20]: 75% | viability, T/C [21]: 72.5% | viability, T/C [22]: 73.1% | viability, T/C [23]: 89.7% | viability, T/C [24]: 81.7% | viability, T/C [25]: 75.5% | viability, T/C [26]: 62.9% | viability, T/C [27]: 68.8% | viability, T/C [28]: 73.8% | viability, T/C [29]: 74.9% | viability, T/C [30]: 68.5% | viability, T/C [31]: 68.3% | viability, T/C [32]: 71.4% | viability, T/C [33]: 69% | viability, T/C [34]: 68.8% | viability, T/C [35]: 71.9% | viability, T/C [36]: 61.8%
